{"source": "patent US20080280937A1", "about": "“Ligand Conjugates of Vinca Alkaloids, Analogs, and Derivatives” (priority 2005, published 2008)", "key": {"M109 tumors": {"tested_on": "M109 tumors", "test": "Inhibition of Tumor Growth in Mice, subcutaneous M109 tumors", "type": "in vivo", "details": "Balb/c mice", "experimental": "Inhibition of Tumor Growth in Mice. The anti-tumor activity of the compounds described herein, when administered intravenously (i.v.) to tumor-bearing animals, was evaluated in Balb/c mice bearing subcutaneous M109 tumors. Approximately 11 days post tumor inoculation in the subcutis of the right axilla with 1×10^6 M109 cells (tumor volume range at t0=between 60 and 80 mm^3), mice (5/group) were injected i.v. three times a week (TIW), for a defined length of time (e.g., 2-3 weeks) with (a) a defined dose level on a per kilogram body weight basis of a drug delivery conjugate described herein, or (b) an equivalent dose volume of PBS (control). Tumor growth was measured using calipers at 2-day or 3-day intervals in each treatment group. Tumor volumes were calculated using the equation V=a×b^2/2, where “a” is the length of the tumor and “b” is the width expressed in millimeters."}, "[1]": {"tested_on": "Folate receptor-negative 4T-1 tumor cells", "test": "4T-1 Tumor Volume Assay", "type": "in vivo, Balb/c mice", "details": "3 μmol/kg TIW for 3 weeks", "text": "4T-1 Tumor Volume Assay. Six to seven week-old mice (female Balb/c strain) were obtained from Harlan, Inc., Indianapolis, Ind. The mice were maintained on Harlan's folate-free chow for a total of three weeks prior to the onset of and during this experiment. Folate receptor-negative 4T-1 tumor cells (1×10^6 cells per animal) were inoculated in the subcutis of the right axilla. Approximately 5 days post tumor inoculation when the 4T-1 tumor average volume was ˜100 mm^3, mice (5/group) were injected i.v. three times a week (TIW), for 3 weeks with 3 μmol/kg of drug delivery conjugate or with an equivalent dose volume of PBS (control). Tumor growth was measured using calipers at 2-day or 3-day intervals in each treatment group. Tumor volumes were calculated using the equation V=a×b^2/2, where “a” is the length of the tumor and “b” is the width expressed in millimeters."}, "[2]": {"tested_on": "folate receptor-positive KB cells", "type": "cell-based, human", "experimental": "Inhibition of Cellular DNA Synthesis. The compounds described herein were evaluated using an in vitro cytotoxicity assay that predicts the ability of the drug to inhibit the growth of folate receptor-positive KB cells. The compounds were comprised of folate linked to a respective chemotherapeutic drug, as prepared according to the protocols described herein. The KB cells were exposed for predetermined periods of time at 37° C. to the indicated concentrations of folate-drug conjugate in the absence or presence of at least a 100-fold excess of folic acid. The cells were then rinsed with fresh culture medium and incubated in fresh culture medium for 72 hours at 37° C. Cell viability was assessed using a ^3H-thymidine incorporation assay."}, "[3]": {"test": "Animal Weight Determination"}, "folate receptors (FRs)": {"biological_target": "T1, folate receptors (FRs) (Homo sapiens, UniProt P15328)", "T1 construct": "FR-positive KB cells were heavily seeded into 24-well cell culture plates; endogenous in cells; host or cells: KB cells", "T1 sequence (P15328 25-234)": "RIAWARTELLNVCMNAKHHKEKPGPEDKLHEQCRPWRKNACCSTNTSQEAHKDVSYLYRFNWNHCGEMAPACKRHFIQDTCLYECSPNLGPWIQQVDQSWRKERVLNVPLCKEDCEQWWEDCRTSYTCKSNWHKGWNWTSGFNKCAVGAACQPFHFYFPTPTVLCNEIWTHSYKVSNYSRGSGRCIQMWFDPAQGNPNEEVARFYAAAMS", "test": "Relative Affinity Assay (displacement of 3H-folic acid on FR-positive KB cells)", "type": "binding", "experimental": "Relative Affinity Assay. The affinity of the compounds described herein for folate receptors (FRs) relative to folate was determined according to a previously described method (Westerhof, G. R., J. H. Schornagel, et al. (1995) Mol. Pharm. 48: 459-471) with slight modification. Briefly, FR-positive KB cells were heavily seeded into 24-well cell culture plates and allowed to adhere to the plastic for 18 h. Spent incubation media was replaced in designated wells with folate-free RPMI (FFRPMI) supplemented with 100 nM ^3H-folic acid in the absence and presence of increasing concentrations of test article or folic acid. Cells were incubated for 60 min at 37° C. and then rinsed 3 times with PBS, pH 7.4, followed by the addition of 500 μL of 1% SDS in PBS, pH 7.4. Cell lysates were then collected and added to individual vials containing 5 mL of scintillation cocktail, and then counted for radioactivity. Negative control tubes contained only the ^3H-folic acid in FFRPMI (no competitor). Positive control tubes contained a final concentration of 1 mM folic acid, and CPMs measured in these samples (representing non-specific binding of label) were subtracted from all samples."}}, "note": "Entries after “also recorded” stand apart in the source; their conditions may differ."}
{"smiles": "CC[C@]1(O)C[C@H]2CN(CCc3c([nH]c4ccccc34)[C@@](C(=O)OC)(c3cc4c(cc3OC)N(C)[C@H]3[C@@](O)(C(=O)NN=CCOCCOCCN5C(=O)CC(SC[C@H](NC(=O)[C@H](CC(=O)O)NC(=O)[C@H](CC(=O)O)NC(=O)[C@H](CCCNC(=N)N)NC(=O)[C@H](CC(=O)O)NC(=O)CC[C@H](NC(=O)c6ccc(NCc7cnc8nc(N)[nH]c(=O)c8n7)cc6)C(=O)O)C(=O)O)C5=O)[C@H](O)[C@]5(CC)C=CCN6CC[C@]43[C@@H]65)C2)C1", "note": "(some centres unmarked) [Example 6]", "values": [{"measurement": "growth of M109 tumors", "setting": "M109 tumors; 1.5 μmol/kg TIW", "result": "inhibits the growth of solid tumors"}, {"measurement": "growth of M109 tumors", "setting": "M109 tumors; 3 μmol/kg TIW for 3 weeks", "result": "inhibits the growth of solid M109 tumors"}, {"measurement": "growth of M109 tumors", "setting": "M109 tumors; 10 μmol/kg TIW for 3 weeks", "result": "inhibits the growth of solid tumors"}, {"measurement": "growth of FR-negative 4T-1 tumors", "setting": "[1]", "result": "not folate receptor (FR)-negative tumors; also recorded: absence of activity"}, {"measurement": "IC50", "setting": "[2]; KB cells, without excess folic acid, read-out: IC50, 3H-thymidine incorporation in KB cells", "result": 14, "unit": "nM"}, {"measurement": "Folate Receptor Competition", "setting": "[2]; summary table", "result": "Yes"}, {"measurement": "competition by excess folic acid of effect on 3H-thymidine incorporation", "setting": "[2]; with versus without at least 100-fold excess of folic acid", "result": "folate competes"}, {"measurement": "weight of nu/nu mice", "setting": "[3]; 5 μmol/kg for 3 weeks (FIG. 16B)", "result": "absence of an effect"}, {"measurement": "weight of nu/nu mice", "setting": "[3]; 10 μmol/kg TIW for 3 weeks (FIG. 5B)", "result": "does not affect the weight of the mice; also recorded: absence of an effect"}, {"measurement": "weight of mice", "setting": "[3]; 10 μmol/kg TIW for 3 weeks (FIG. 7B)", "result": "absence of an effect"}, {"measurement": "weight of Balb/c mice", "setting": "[3]; 10 μmol/kg for 3 weeks (FIG. 14B)", "result": "absence of an effect"}, {"measurement": "weight of nu/nu mice", "setting": "[3]; 1, 5, and 10 μmol/kg TIW for 3 weeks (FIG. 6B)", "result": "little effect on the weight of the mice; also recorded: absence of an effect"}, {"measurement": "relative binding affinity versus folic acid at folic acid receptors", "setting": "folate receptors (FRs); figure legends, folic acid = 1.0, 1 hour at 37° C", "result": 0.35}, {"measurement": "Relative Folate Receptor Affinity", "setting": "folate receptors (FRs); summary table", "result": 0.31}]}
